Measurements reported in patent publication US7345070B2, “Peroxisome proliferator activated receptor agonists” (Eli Lilly and Company, priority 2000, dated 2008).

Legend:
huPPARα [1] = experiment: Cotransfection assay in CV-1 cells, huPPARα; type: cell-based, human; conditions: GAL4 chimeric system, relative to PPARα agonist reference molecule
Experimental: (§1) DNA-dependent binding (ABCD binding) was carried out using SPA technology with PPAR receptors. Tritium-labeled PPARα and PPARγ agonists were used as radioligands for generating displacement curves and IC50 values with compounds of the invention. Cotransfection assays were carried out in CV-1 cells. The reporter plasmid contained an acylCoA oxidase (AOX) PPRE and TK promoter upstream of the luciferase reporter cDNA. Appropriate PPARs and RXRα were constitutively expressed using plasmids containing the CMV promoter. […] In order to eliminate such interference, a GAL4 chimeric system was used in which the DNA binding domain of the transfected PPAR was replaced by that of GAL4, and the GAL4 response element was utilized in place of the AOX PPRE. Cotransfection efficacy was determined relative to PPARα agonist and PPARγ agonist reference molecules. Efficacies were determined by computer fit to a concentration-response curve, or in some cases at a single high concentration of agonist (10 μM). For binding or cotransfection studies with receptors other than PPARs, similar assays were carried out using appropriate ligands, receptors, reporter constructs, etc., for that particular receptor.
(§2) These studies were carried out to evaluate the ability of compounds of the invention to bind to and/or activate various nuclear transcription factors, particularly huPPARα (“hu” indicates “human”) and huPPARγ. These studies provide in vitro data concerning efficacy and selectivity of compounds of the invention. Furthermore, binding and cotransfection data for compounds of the invention were compared with corresponding data for marketed compounds that act on either huPPARα or huPPARγ.

huPPARγ [2] = molecular target: T1, huPPARγ (Homo sapiens, UniProt P37231); experiment: Cotransfection assay in CV-1 cells, huPPARγ; type: cell-based; set-up: Appropriate PPARs and RXRα were constitutively expressed using plasmids containing the CMV promoter; expressed in transfected cells; host or cells: CV-1 cells; conditions: AOX PPRE luciferase reporter, relative to PPARγ agonist reference molecule; for Emax: read-out: huPPARγ CTF Efficacy
T1 sequence (P37231 1-505): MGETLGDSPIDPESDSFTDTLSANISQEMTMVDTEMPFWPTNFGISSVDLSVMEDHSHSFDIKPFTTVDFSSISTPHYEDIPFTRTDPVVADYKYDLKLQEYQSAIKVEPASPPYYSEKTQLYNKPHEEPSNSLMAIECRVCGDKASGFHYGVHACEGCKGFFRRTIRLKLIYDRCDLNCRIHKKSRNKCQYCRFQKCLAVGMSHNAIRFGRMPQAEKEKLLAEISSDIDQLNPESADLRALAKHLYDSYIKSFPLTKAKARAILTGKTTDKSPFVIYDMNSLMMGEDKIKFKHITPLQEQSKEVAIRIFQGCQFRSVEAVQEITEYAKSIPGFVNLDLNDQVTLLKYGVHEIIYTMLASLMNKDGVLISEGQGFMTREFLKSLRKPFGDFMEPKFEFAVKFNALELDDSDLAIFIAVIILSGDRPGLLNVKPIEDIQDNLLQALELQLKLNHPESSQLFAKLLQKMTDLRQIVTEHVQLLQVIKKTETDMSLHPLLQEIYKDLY
T1 sequence (P19793 1-462 partner): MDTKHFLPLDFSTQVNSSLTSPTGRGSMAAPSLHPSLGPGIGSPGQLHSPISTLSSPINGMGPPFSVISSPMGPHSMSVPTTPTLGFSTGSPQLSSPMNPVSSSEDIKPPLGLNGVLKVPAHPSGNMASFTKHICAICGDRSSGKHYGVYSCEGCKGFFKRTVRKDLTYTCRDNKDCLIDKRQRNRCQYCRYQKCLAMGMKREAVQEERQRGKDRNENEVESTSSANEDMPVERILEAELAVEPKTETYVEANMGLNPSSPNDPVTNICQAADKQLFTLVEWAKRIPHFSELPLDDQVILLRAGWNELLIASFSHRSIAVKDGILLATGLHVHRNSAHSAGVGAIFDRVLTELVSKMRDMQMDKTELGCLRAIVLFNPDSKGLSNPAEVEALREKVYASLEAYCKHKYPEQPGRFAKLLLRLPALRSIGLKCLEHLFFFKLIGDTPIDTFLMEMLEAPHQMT
Experimental: as §1, §2

huPPARα [3] = molecular target: T2, huPPARα (Homo sapiens, UniProt Q07869); experiment: DNA-dependent binding (ABCD binding) using SPA technology, huPPARα; conditions: SPA displacement of tritium-labeled PPARα agonist radioligand
T2 sequence (Q07869 1-468): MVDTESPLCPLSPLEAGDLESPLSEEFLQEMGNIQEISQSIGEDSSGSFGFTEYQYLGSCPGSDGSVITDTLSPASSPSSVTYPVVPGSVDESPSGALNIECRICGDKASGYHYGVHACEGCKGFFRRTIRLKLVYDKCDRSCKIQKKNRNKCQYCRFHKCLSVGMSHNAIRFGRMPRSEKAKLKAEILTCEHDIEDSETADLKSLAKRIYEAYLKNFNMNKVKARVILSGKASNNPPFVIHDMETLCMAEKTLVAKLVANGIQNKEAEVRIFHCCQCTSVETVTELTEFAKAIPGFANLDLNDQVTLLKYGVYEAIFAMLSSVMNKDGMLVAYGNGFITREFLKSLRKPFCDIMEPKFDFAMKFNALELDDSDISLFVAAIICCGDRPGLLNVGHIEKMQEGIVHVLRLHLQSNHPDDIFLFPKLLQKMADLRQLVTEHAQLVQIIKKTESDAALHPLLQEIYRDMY
T2 sequence (P19793 1-462 partner): T1 sequence (P19793 1-462 partner)
Experimental: as §1, §2

HuapoAI transgenic mice = experiment: Evaluation of triglyceride and cholesterol level in HuapoAI transgenic mice; type: in vivo; conditions: Mus musculus, 168 h; human apoAI transgenic mice, 30 mg/kg oral gavage daily for 7 days, FPLC area under the curve, over mice receiving vehicle; read-out: % HDLc Increase
Experimental: After an acclimation period of 2 weeks, animals were individually identified by ear notches, weighed, and assigned to groups based on body weight. Beginning the following morning, mice were dosed daily by oral gavage for 7 days using a 20 gauge, 1½″ curved disposable feeding needle (Popper & Sons). […] Prior to termination on day 7, mice were weighed and dosed. Three hours after dosing, animals were anesthetized by inhalation of isoflurane (2-4%; Abbott Laboratories, Chicago, Ill.) and blood obtained via cardiac puncture (0.7-1.0 ml). Whole blood was transferred to serum separator tubes (Vacutainer SST), chilled on ice, and permitted to clot. Serum was obtained after centrifugation at 4° C. and frozen until analysis for triglycerides, total cholesterol, compound levels, and serum lipoprotein profile by fast protein liquid chromatography (FPLC) coupled to an inline detection system. After sacrifice by cervical dislocation, the liver, heart and epididymal fat pads were excised and weighed.
The absorbance of the dye produced is linearly related to the analyte in the sample. The assays were further modified in our laboratory for use in a 96 well format. […] An additional aliquot of sample, pipetted to a third well and diluted in 200 μl water, provided a blank for each specimen. […] Sample absorbances were compared to a standard curve (100-800, 10-500, and 100-400 mg/dl for glucose, triglycerides and total cholesterol, respectively). […] All samples from an experiment were assayed at the same time to minimize inter-assay variability.
Serum lipoproteins were separated and cholesterol quantitated with an in-line detection system. Sample was applied to a Superose® 6 HR 10/30 size exclusion column (Amersham Pharmacia Biotech) and eluted with phosphate buffered saline-EDTA at 0.5 ml/min. […] The change in voltage corresponding to change in cholesterol concentration was plotted vs time and the area under the curve corresponding to the elution of VLDL, LDL and HDL was calculated using Perkin Elmer Turbochrome software.

huPPARγ [4] = molecular target: T1, huPPARγ; experiment: DNA-dependent binding (ABCD binding) using SPA technology, huPPARγ; conditions: SPA displacement of tritium-labeled PPARγ agonist radioligand
Experimental: as §1, §2

| Emax (huPPARγ [2]) | IC50 (huPPARα [3]) | IC50 (huPPARγ [4]) | huPPARγ CTF Efficacy (huPPARγ [2]) | Compound | huPPARα CTF Efficacy (huPPARα [1]) | change in vivo at 30 mg/kg (HuapoAI transgenic mice) |
| --- | --- | --- | --- | --- | --- | --- |
| 73% | 53 nM | 19 nM | – | Cc1oc(C2CCCCC2)nc1CCOc1ccc(CC(C)(Oc2ccc(Cl)cc2)C(=O)O)cc1 (stereo not drawn) [Example 31, 2-(4-Chlorophenoxy)-3-{4-[2-(2-cyclohexyl-5-methyl-oxazol-4-yl)-ethoxy]-phenyl}-2-methyl-propionic acid] | 63% | 114% |
| 58% | 175 nM | 655 nM | – | CCC(Cc1ccc(OCCc2nc(C3(C)CCCCC3)oc2C)cc1)(Oc1ccccc1)C(=O)O (stereo not drawn) [Example 49, 2-(4-{2-[5-Methyl-2-(1-methyl-cyclohexyl)-oxazol-4-yl]-ethoxy}-benzyl)-2-phenoxy-butyric acid] | 63% | 17% |
| – | – | – | 0% | CC(C)(Oc1ccc(C(=O)c2ccc(Cl)cc2)cc1)C(=O)O [Fenofibric acid, reference compound] | 16% | – |
